{"source": "patent US10772893B2", "about": "“2-(morpholin-4-yl)-1,7-naphthyridines” (BAYER PHARMA AKTIENGESELLSCHAFT, priority 2014, dated 2020)", "data": [{"tested_on": "HeLa cells", "test": "Proliferation assay, crystal violet staining", "conditions": "Homo sapiens, 96 h, read-out: Inhibition of HeLa cell proliferation, HeLa cells, 4 days incubation", "units": {"IC50": "nM"}, "method": "After 24 hours, the cells of one plate (zero plate) were dyed with crystal violet (see below), whereas the medium of the other plates was replaced with fresh culture medium (200 μl) to which the test substances were added in various concentrations (0 μM, and also in the range of 0.001-10 μM; the final concentration of the solvent dimethyl sulphoxide was 0.1 or 0.5%). The cells were incubated for 4 days in the presence of the test substances. […] After washing the fixed cells three times with water, the plates were dried at room temperature. The cells were stained by adding 100 μl/measurement point of a 0.1% strength crystal violet solution (pH adjusted to pH 3 by adding acetic acid). After washing the cells three times with water, the plates were dried at room temperature. The dye was dissolved by adding 100 μl/measurement point of a 10% strength acetic acid solution. […] The percentage change in cell growth was calculated by normalizing the measured values to the absorbance values of the zero plate (=0%) and the absorbance of the untreated (0 W) cells (=100%). The IC50 values were determined by means of a four parameter fit.", "values": [{"compound": "[O-][S+](c1ccccc1)c1cc(N2CCOCC2)nc2c(-c3ccn[nH]3)nccc12", "note": "(centres unmarked) [Example 201, 2-(morpholin-4-yl)-4-(phenylsulfinyl)-8-(1H-pyrazol-5-yl)-1,7-naphthyridine]", "IC50": "> 3000"}, {"compound": "C[C@@H]1COCCN1c1cc(-c2cnn(C3CCC3)c2)c2ccnc(-c3ccn[nH]3)c2n1", "note": "[Example 253, 4-(1-cyclobutyl-1H-pyrazol-4-yl)-2-[(3R)-3-methylmorpholin-4-yl]-8-(1H-pyrazol-5-yl)-1,7-naphthyridine]", "IC50": 558}, {"compound": "COc1cnccc1-c1cc(N2CCOC[C@H]2C)nc2c(-c3ccn[nH]3)nccc12", "note": "[Example 227, 4-(3-methoxypyridin-4-yl)-2-[(3R)-3-methylmorpholin-4-yl]-8-(1H-pyrazol-5-yl)-1,7-naphthyridine]", "IC50": 1940}, {"compound": "CC[S+]([O-])c1cc(N2CCOCC2)nc2c(-c3ccn[nH]3)nccc12", "note": "(centres unmarked) [Example 195, 4-ethylsulfinyl-2-(morpholin-4-yl)-8-(1H-pyrazol-5-yl)-1,7-naphthyridine]", "IC50": 3010}, {"compound": "C[C@@H]1COCCN1c1cc(C2=CCN(C)CC2)c2ccnc(-c3ccn[nH]3)c2n1", "note": "[Example 243, 2-[(3R)-3-methylmorpholin-4-yl]-4-(1-methyl-1,2,3,6-tetrahydropyridin-4-yl)-8-(1H-pyrazol-5-yl)-1,7-naphthyridine]", "IC50": 360}, {"compound": "CC1CCN(c2cc(N3CCOC[C@H]3C)nc3c(-c4ccn[nH]4)nccc23)CC1", "note": "[Example 109, 2-[(3R)-3-methylmorpholin-4-yl]-4-(4-methylpiperidin-1-yl)-8-(1H-pyrazol-5-yl)-1,7-naphthyridine]", "IC50": 298}, {"compound": "C[C@@H]1COCCN1c1cc(-c2ccccc2N(C)C)c2ccnc(-c3ccn[nH]3)c2n1", "note": "[Example 122, N,N-dimethyl-2-{2-[(3R)-3-methylmorpholin-4-yl]-8-(1H-pyrazol-5-yl)-1,7-naphthyridin-4-yl}aniline]", "IC50": 706}, {"compound": "COCCS(C)(=O)=Nc1cc(N2CCOC[C@H]2C)nc2c(-c3ccn[nH]3)nccc12", "note": "(stereo partly drawn) [Example 274, 4-{[(2-methoxyethyl)(methyl)oxido-λ^6-sulfanylidene]amino}-2-[(3R)-3-methylmorpholin-4-yl]-8-(1H-pyrazol-5-yl)-1,7-naphthyridine]", "IC50": 610}, {"compound": "Clc1ccc(-c2cc(N3CCOCC3)nc3c(-c4ccn[nH]4)nccc23)s1", "note": "[Example 299, 4-(5-chlorothiophen-2-yl)-2-(morpholin-4-yl)-8-(1H-pyrazol-5-yl)-1,7-naphthyridine]", "IC50": "> 3000"}, {"compound": "C[C@@H]1COCCN1c1cc(N=S(C)(=O)C(C)(C)C)c2ccnc(-c3ccn[nH]3)c2n1", "note": "(stereo partly drawn) [Example 278, 4-{[tert-butyl(methyl)oxido-λ^6-sulfanylidene]amino}-2-[(3R)-3-methylmorpholin-4-yl]-8-(1H-pyrazol-5-yl]-1,7-naphthyridine]", "IC50": 168}, {"compound": "Cc1cc(-c2cc(N3CCOC[C@H]3C)nc3c(-c4ccn[nH]4)nccc23)cnc1C", "note": "[Example 232, 4-(5,6-dimethylpyridin-3-yl)-2-[(3R)-3-methylmorpholin-4-yl]-8-(1H-pyrazol-5-yl)-1,7-naphthyridine]", "IC50": 341}, {"compound": "Clc1ccc(-c2cc(N3CCOCC3)nc3c(-c4ccn[nH]4)nccc23)cc1", "note": "[Example 316, 4-(4-chlorophenyl)-2-(morpholin-4-yl)-8-(1H-pyrazol-5-yl)-1,7-naphthyridine]", "IC50": "> 3000"}, {"compound": "C[C@@H]1COCCN1c1cc(C2=CCSCC2)c2ccnc(-c3ccn[nH]3)c2n1", "note": "[Example 108, 4-(3,6-dihydro-2H-thiopyran-4-yl)-2-[(3R)-3-methylmorpholin-4-yl]-8-(1H-pyrazol-5-yl)-1,7-naphthyridine]", "IC50": 456}, {"compound": "Cc1ccsc1-c1cc(N2CCOC[C@H]2C)nc2c(-c3ccn[nH]3)nccc12", "note": "[Example 99, 2-[(3R)-3-methylmorpholin-4-yl]-4-(3-methyl-2-thienyl)-8-(1H-pyrazol-5-yl)-1,7-naphthyridine]", "IC50": 400}, {"compound": "C[C@@H]1COCCN1c1cc(-c2cn[nH]c2)c2ccnc(-c3ccn[nH]3)c2n1", "note": "[Example 269, 2-[(3R)-3-methylmorpholin-4-yl]-4-(1H-pyrazol-4-yl)-8-(1H-pyrazol-5-yl)-1,7-naphthyridine]", "IC50": 405}, {"compound": "CC(C)Cn1cc(-c2cc(N3CCOC[C@H]3C)nc3c(-c4ccn[nH]4)nccc23)cn1", "note": "[Example 268, 2-[(3R)-3-methylmorpholin-4-yl]-4-[1-(2-methylpropyl)-1H-pyrazol-4-yl]-8-(1H-pyrazol-5-yl)-1,7-naphthyridine]", "IC50": 415}, {"compound": "C[S+]([O-])c1cc(N2CCOCC2)nc2c(-c3ccn[nH]3)nccc12", "note": "(centres unmarked) [Example 202, 4-(methylsulfinyl)-2-(morpholin-4-yl)-8-(1H-pyrazol-5-yl)-1,7-naphthyridine]", "IC50": 1530}, {"compound": "C[C@@H]1COCCN1c1cc(-c2ccn(C3CCOCC3)n2)c2ccnc(-c3ccn[nH]3)c2n1", "note": "[Example 246, 2-[(3R)-3-methylmorpholin-4-yl]-8-(1H-pyrazol-5-yl)-4-[1-(tetrahydro-2H-pyran-4-yl)-1H-pyrazol-3-yl]-1,7-naphthyridine]", "IC50": 2840}, {"compound": "C[C@@H]1COCCN1c1cc(C2(O)CCCCC2)c2ccnc(-c3ccn[nH]3)c2n1", "note": "[Example 189, 1-{2-[(3R)-3-methylmorpholin-4-yl]-8-(1H-pyrazol-5-yl)-1,7-naphthyridin-4-yl}cyclohexanol]", "IC50": 1010}, {"compound": "FC(F)(F)c1ccccc1-c1cc(N2CCOCC2)nc2c(-c3ccn[nH]3)nccc12", "note": "[Example 301, 2-(morpholin-4-yl)-8-(1H-pyrazol-5-yl)-4-[2-(trifluoromethyl)phenyl]-1,7-naphthyridine]", "IC50": 2820}, {"compound": "C[C@@H]1COCCN1c1cc(-c2cccc(S(C)(=O)=O)c2F)c2ccnc(-c3ccn[nH]3)c2n1", "note": "[Example 132, 4-[2-fluoro-3-(methylsulfonyl)phenyl]-2-[(3R)-3-methylmorpholin-4-yl]-8-(1H-pyrazol-5-yl)-1,7-naphthyridine]", "IC50": 507}, {"compound": "C[C@@H]1CN(c2cc(N3CCOCC3)nc3c(-c4ccn[nH]4)nccc23)C[C@H](C)N1", "note": "[Example 179, 4-[(cis)-3,5-dimethylpiperazin-1-yl]-2-(morpholin-4-yl)-8-(1H-pyrazol-5-yl)-1,7-naphthyridine]", "IC50": "> 3000"}, {"compound": "C[C@@H]1COCCN1c1cc(-c2cnc(F)cc2F)c2ccnc(-c3ccn[nH]3)c2n1", "note": "[Example 247, 4-(4,6-difluoropyridin-3-yl)-2-[(3R)-3-methylmorpholin-4-yl]-8-(1H-pyrazol-5-yl)-1,7-naphthyridine]", "IC50": 228}, {"compound": "CSc1ccc(-c2cc(N3CCOC[C@H]3C)nc3c(-c4ccn[nH]4)nccc23)c(C)n1", "note": "[Example 115, 4-[2-methyl-6-(methylsulfanyl)pyridin-3-yl]-2-[(3R)-3-methylmorpholin-4-yl]-8-(1H-pyrazol-5-yl)-1,7-naphthyridine]", "IC50": 199}, {"compound": "C[C@@H]1COCCN1c1cc(-c2cccn2C)c2ccnc(-c3ccn[nH]3)c2n1", "note": "[Example 91, 2-[(3R)-3-methylmorpholin-4-yl]-4-(1-methyl-1H-pyrrol-2-yl)-8-(1H-pyrazol-5-yl)-1,7-naphthyridine]", "IC50": 108}, {"compound": "CCn1nc(C(F)(F)F)cc1-c1cc(N2CCOC[C@H]2C)nc2c(-c3ccn[nH]3)nccc12", "note": "[Example 119, 4-[1-ethyl-3-(trifluoromethyl)-1H-pyrazol-5-yl]-2-[(3R)-3-methylmorpholin-4-yl]-8-(1H-pyrazol-5-yl)-1,7-naphthyridine]", "IC50": 425}]}]}
